In US7491534B2, “Methods for altering cell fate to generate T-cells specific for an antigen of interest” (priority 2000, dated 2009):
Numbered stars: 1 amine (or outer) side, 2 acyl side, 3 side chain; on linkers, the order of the positions; unused ones are H or OH. Bridge positions count the residues as written; N and C are the ends. Square brackets hold non-standard residues; d marks the D form. Peptide text beside a SMILES is read from it. I, II: the chains in the order shown. Actinocin(9to1) = Cc1c2oc3c(C)ccc(C(=O)[*:1])c3nc-2c(C(=O)[*:2])c(N)c1=O; NMeV = CN[C@H](C(=O)O)C(C)C; Sar = CNCC(=O)O

Experiments:
[1] = tested on: NFAT, c-Jun/AP 1, NFκB, and MAP kinase (Erk1 and Erk2); experiment: Nuclear uptake of transcription factors by resting T-cell nuclei in cell-free extract (immunoblot); type: biochemical, human; settings: in stimulated extract; ATP or GTP substituted, or nuclear pores blocked
Procedure: A stimulated T-cell extract was prepared by lysing these T-cells, centrifuging them at 15,000×g, isolating the supernatant, and adding an ATP-generating system to the supernatant. In particular, cells were disrupted with a tip sonicator until over 90% of the cells and nuclei were lysed. The lysate was cleared at 15,000×g for 15 minutes at 4° C. The supernatant was used fresh or aliquoted, frozen in liquid nitrogen, and stored at −80° C. […] Extract from unstimulated T-cells (USE) were prepared from mock (H2O)-stimulated T-cells. A reprogramming reaction consisted of 20 μl or multiples thereof of stimulated extract or unstimulated extract containing 10^5 nuclei and an ATP generating system (1 mM ATP, 10 mM creatine phosphate, 25 μg/ml creatine kinase, and 100 μM GTP).
To generate donor nuclei, resting peripheral blood T-cells were washed and resuspended in 20 volumes of ice-cold hypotonic nuclear buffer (10 mM Hepes, pH 7.5, 2 mM MgCl2, 25 mM KCl, 1 mM DTT, and protease inhibitors). Nuclei were isolated by careful Dounce-homogenization, sedimented at 400×g and washed in nuclear buffer (hypotonic nuclear buffer/250 mM sucrose). HUVEC, HeLa, and NT2 nuclei were isolated similarly. Nuclear integrity prior to, and after, incubation in the extract was monitored by phase contrast microscopy and by nuclear membrane labeling with 10 μg/ml of the lipophilic dye, DiOC6 (FIG. 8A). […]
The ability of other transcription factors from the extract to migrate into the nuclei of T-cells, B-cells, fibroblasts, and HeLa cells was also determined. […] As expected for a whole cell extract, NFAT, AP-1, or NFκB, Oct-1 and Erk (1 and 2) were detected on Western blots of input stimulated extract prior to incubation of the nuclei (FIG. 8B). […] The ubiquitous transcription factor Oct-1 was detected in similar amounts in input nuclei and nuclei exposed to stimulated extract or unstimulated extract (FIG. 8B, Oct-1).

293T fibroblasts = experiment: Permeabilization of 293T fibroblasts judged by propidium iodide uptake; type: cell-based, human; settings: 200 ng/ml, 50 minutes at 37° C.
Procedure: For these studies, 293T fibroblasts were grown on 16-mm poly-L-lysine-coated coverslips in RPMI1640 to 100,000 cells/coverslip in 12-well plates. Cells were permeabilized in 200 ng/ml streptolysin O in Ca^2+-free Hanks Balanced Salt Solution (Gibco-BRL) for 50 minutes at 37° C. in regular atmosphere. Over 80% of 293T cells were permeabilized under these conditions, as judged by propidium iodide uptake. Streptolysin O was aspirated; coverslips overlaid with 80 μl of either 293T, Jurkat-Tag, or NT2 extract; and incubated for one hour at 37° C. in CO2 atmosphere. Each extract contained the ATP generating system and 1 mM each of ATP, CTP, GTP and UTP. Extracts from Jurkat-TAg cells were prepared as described above after co-stimulation for 1-2 hours with 40 ng/ml anti-CD3 antibodies (clone SpvT3d obtained from A. M. Rasmussen, Norwegian Radium Hospital, Montebello, Norway) and 0.1 μM PMA. The neuronal precursor NT2 extract was prepared from confluent NT2 cells (Stratagene) by sonication and sedimentation as described above. To reseal plasma membranes, RPMI1640 containing 2 mM CaCl2 (added from a 1 M stock in H2O) was added to the wells, and the cells were incubated for two hours at 37° C. This procedure resealed ˜100% of the permeabilized cells. Ca^2+-containing RPMI was replaced by RPMI, and the cells were expanded for several weeks.

IL-2 gene [2] = experiment: RT-PCR of IL-2 mRNA in HUVEC, NT2 and HeLa nuclei incubated in extract; type: biochemical, human; settings: 50 nM actinomycin D; mAb414
Procedure: As a more stringent indicator of nuclear reprogramming, activation of the IL-2 gene was monitored in nuclei purified from primary human umbilical vein endothelial cells (HUVEC), NT2 neuronal precursors, and HeLa cells after a two hour incubation in the stimulated extract. […] IL-2 activation was dependent on RNA Pol II activity and nuclear import, based on its elimination by 50 nM actinomycin D and mAb414, respectively (FIG. 10C).

IL-2 gene [3] = experiment: RT-PCR of IL-2 transcription in 293T fibroblast nuclei; type: biochemical, human; settings: 293T nuclei; mAb414 or 50 nM actinomycin D
Procedure: Another and more stringent indicator of nuclear reprogramming was induction of IL-2 transcription in 293T fibroblast nuclei exposed to stimulated T-cell extract (FIG. 12D). Total RNA was isolated using the Qiagen RNeasy kit, and 15 ng RNA was used as the template for RT-PCR using the Promega Access RT-PCR System. A 467-bp product was amplified using the IL-2-specific primers 5′-[…]-3′ (SEQ ID NO: 5) and 5′-[…]-3′ (SEQ ID NO: 6) by 30 cycles of denaturation at 94° C. for 30 seconds, annealing at 60° C. for one minute, and extension at 72° C. for one minute. […] As expected from the above results, the IL-2 transcript was absent from input nuclei, input stimulated T-cell extract, and nuclei exposed to stimulated T-cell extract containing either 100 pg/ml RNAse A, mAb414, or 50 nM of the RNA polymerase II (Pol II) inhibitor, actinomycin D (FIG. 12D). Similar results were obtained with neuronal precursor NT2 nuclei and resting T-cell nuclei (FIG. 12D).

IL-2 gene [4] = experiment: RT-PCR of IL-2 mRNA in resting T-cell nuclei incubated in extract; type: biochemical, human; settings: mAb414 antibody or 0.5 mg/ml wheat germ agglutinin
Procedure: As controls, nuclei were incubated in stimulated extract containing either 100 μg/ml RNAse A, 100 μg/ml DNAse I, mAb414 antibodies, or the lectin WGA. After 30 minutes at 30° C., nuclei were lysed in the extracts by sonication and 3 μl extract aliquots were removed for RT-PCR analysis using IL-2-specific primers. In particular, total RNA was isolated using the Qiagen RNeasy kit, and 15 ng RNA was used as the template for RT-PCR using the Promega Access RT-PCR System. A 467-bp IL-2 cDNA was amplified using the IL-2-specific primers 5′-[…]-3′ (SEQ ID NO: 3) and 5′-[…]-3′ (SEQ ID NO:4). PCR conditions were 30 cycles of denaturation at 94° C. for one minute, annealing at 60° C. for two minutes, and extension at 72° C. for three minutes. Input stimulated extract and a control stimulated extract containing 1.2 μg total RNA isolated from IL-2-producing T-cells were also analyzed (FIGS. 5A and 10A). […] The PCR product of the expected size (467 base pairs) was absent from input nuclei and input stimulated extract (as expected from FIG. 7), nuclei exposed to unstimulated extract (Nuclei-USE), and nuclei exposed to stimulated extract followed by treatment with 100 μg/ml RNAse A, but not 100 μg/ml DNAse I, prior to RT-PCR. Thus, detection of IL-2 mRNA was the result of IL-2 transcription and not of RNA contamination in input nuclei or in the extract. […]

## Nc1ncnc2c1ncn2[C@@H]1O[C@H](COP(=O)(O)OP(=O)(O)OP(O)(O)=S)[C@@H](O)[C@H]1O [ATPγS]
[1]
  nuclear uptake (import) of transcription factors in resting T-cell nuclei: inhibited

## streptolysin O: bacterial toxin used to reversibly permeabilize cells
293T fibroblasts
  293T cells permeabilized: Over 80%

## Cc1c2oc3c(C)ccc(C(=O)N[C@@H]4C(=O)N[C@H](C(C)C)C(=O)N5CCC[C@H]5C(=O)N(C)CC(=O)N(C)[C@@H](C(C)C)C(=O)O[C@@H]4C)c3nc-2c(C(=O)N[C@@H]2C(=O)N[C@H](C(C)C)C(=O)N3CCC[C@H]3C(=O)N(C)CC(=O)N(C)[C@@H](C(C)C)C(=O)O[C@@H]2C)c(N)c1=O [actinomycin D] (I: T[dV]P[Sar][NMeV] / II: T[dV]P[Sar][NMeV]; ester I:1-I:C, II:1-II:C; linker I:N-II:N via Actinocin(9to1))
IL-2 gene [2]
  IL-2 activation in stimulated extract with inhibitor: elimination
IL-2 gene [3]
  IL-2 transcript in stimulated T-cell extract with inhibitor: absent

## wheat germ agglutinin
IL-2 gene [4]
  IL-2 transcription in stimulated extract with nuclear pore function blocked: abolished

## Nc1nc2c(ncn2[C@@H]2O[C@H](COP(=O)(O)OP(=O)(O)OP(O)(O)=S)[C@@H](O)[C@H]2O)c(=O)[nH]1 [GTPγS]
[1]
  nuclear uptake (import) of transcription factors in resting T-cell nuclei: inhibited

## Nc1ncnc2c1ncn2[C@@H]1O[C@H](COP(=O)(O)OP(=O)(O)NP(=O)(O)O)[C@@H](O)[C@H]1O [AMP-PNP]
[1]
  nuclear uptake (import) of transcription factors in resting T-cell nuclei: inhibited
